Results published in US10233201B2, “Class of HDAC inhibitors expands the renal progenitor cells population and improves the rate of recovery from acute kidney injury” (University of Pittsburgh—Of the Commonwealth System of …, priority 2012, dated 2019).

Assays:
[1] = tested on: lhx1a, pax2a, pax8, ntla transcripts; experiment: Relative qPCR in the trunk region of 10-somite embryos; format: in vivo, zebrafish; settings: 3 μM
Description: Conducted as described in WO 2012109527 and in priority U.S. provisional Patent Application No. 61/720,621.

[2] = tested on: conditionally-immortalized mouse podocyte cell line; experiment: Podocyte cytotoxicity assay (Cell Titer-Blue); settings: 72 hours, up to 30 μM
Description: For the purposes of these experiments, they function as an indicator of renal toxicity. Following 72 hours of treatment with each compound concentrations ranging from 30 μM to 3 nM, podocyte viability was assessed by measuring residual metabolic activity (FIG. 30).
Mouse podocytes were plated at a density of 6,000 cells per 200 μl in 96-well plates to elicit log-phase growth. The indicated PTBA analogs were added at 30 μM, 10 μM, 1 μM, 300 nM, 100 nM, 30 nM, or 3 nM and incubated at 33° C. for 72 hours. The final DMSO concentration was maintained at 0.2% in all treatments except 30 μM (0.6%). After incubation, cytotoxicity was analyzed using the Cell Titer-Blue Cell Viability Assay (Promega) per manufacturer's instructions. Reagent (20 μl) was added to 100 μl of cells and plates were incubated for 2 hours at 37° C. Fluorescence was read at 79 560Ex/590Em on a Gemini SpectramaxXS (Molecular Devices) plate reader. Viability was calculated as a percentage of the DMSO control, which was considered 100% viability. Data represent the results of three independent experiments using duplicate wells for each condition. E50 values were determined from the transformed and normalized data by non-linear regression.

[3] = tested on: pronephros; experiment: Pronephric markers at 48 hpf (cdh17, NaK-ATPase, wt1a, slc4a4, slc12a1); format: in vivo, zebrafish; settings: 3 μM
Description: PTBA was synthesized as described below. Hydroxyurea and aphidicolin were obtained from Sigma-Aldrich.
In situ hybridization and immunocytochemistry: In situ hybridization was performed as previously described with some modifications. 142 Hybridization temperature was 65° C. Embryos were blocked in 2% blocking reagent (Roche) with 5% sheep serum in MAB (100 mM maleic acid and 150 mM NaCl [pH 7.5]). Whole-mount immunocytochemistry with 1:25 mouse anti-α6F antibody (Developmental Studies Hybridoma Bank) and 1:100 Cy3 secondary antibody (Jackson ImmunoResearch) was performed as described previously. 108 Embryos were embedded in JB-4 for sectioning per the manufacturer's instructions (Polysciences), sectioned at 5 μm, and mounted with Cytoseal 60 (Richard-Allan Scientific).

[4] = tested on: Acetylated Histone H3 K9 (Ac-H3 K9); experiment: Renal histone H3 K9 acetylation after single injection in CD1 mice; format: in vivo, mouse
Description: PTBA analogues are soluble in 1% DMSO/water, are administered subcutaneously as a single injection in adult CD1 mice, and kidneys harvested at 12, 24 and 48 hours to evaluate histone acetylation (which should increase with HDACi). PTBA analogs are used at a dose range determined from comparative dose efficacy with m4PTB in the secondary zebrafish screen. Acetylated Histone H3 K9 (Ac-H3 K9) is evaluated, as this is most easily detected by Western blot in nuclear extracts from mouse renal tissues. Preliminary studies compared the effect of Trichostatin A (an established, but toxic HDACi) at an effective dose in the zebrafish screen ([…]) with an equivalent dose of m4PTB (0.8 mM), and then X2 and X4 dose increments (molar concentration in vivo based on estimate uniform distribution relative to body mass of water). 3.4 mg/kg (4×) m4PTB induced maximal expression of Ac-H3 K9 after 24 hours (FIG. 36). This effect was increased compared with TSA or lower doses of m4PTB, so we elected to use this dose of m4PTB (3.4 mg/kg) for AKI studies in mice. […]
We evaluated efficacy and effective dosage of a second-generation PTBA analogue, m4PTB, by determining the kinetics of renal Histone H3 K9 acetylation (H3K9Ac) following a single SC injection. […]

[5] = tested on: BALB/c mice, severe IR-AKI; experiment: Severe ischemia-reperfusion AKI (IR-AKI); format: in vivo, mouse; settings: 7 days at 50 mg/ml starting 24 hrs after severe IR
Description: Surgeries were performed on a water-bath heated platform at 38° C. on 10-12 week old male BALB/c mice. For moderate IR-AKI, mice underwent a right nephrectomy followed by left renal pedicle clamping (800 μm pressure clamp, FST 18052-03). The clamp was released after 26 minutes, and tissue reperfusion was confirmed before completing the surgery. Mice were treated daily with indicated doses of compounds or equivalent volume of 20% 2-hydroxypropyl-β-cyclodextrin in water as vehicle control starting 24 h after injury. Since initial injury with this model is variable, mice were randomly allocated vehicle or m4PTB treatment if their serum creatinine levels were 0.8 to 1.2 mg/dl 24 h post IR injury. Other mice were excluded from further analysis and euthanized. To induce severe IR-AKI, mice underwent left renal pedicle clamping for 30 minutes and delayed contralateral nephrectomy was performed after 8 days.
For mouse studies, kidney sections were stained using Periodic Acid-Schiff (PAS) to assess renal tubular injury. Tubular injury (casts, dilated tubules, epithelial cell blebbing, and vacuolization, loss of brush borders or nuclei) was scored as described. Sirius red staining was performed using an established protocol used to evaluate renal fibrosis/collagen accumulation in kidney sections. To quantify Sirius red staining we used an Olympus BX-41 microscope equipped with an Olympus DP-72 digital camera system and polarizing light filter. Results are expressed as the mean percent fibrosis for all of the images per slide region (Sirius red positive/total surface area).
We used of 2-hydroxypropyl-β-cyclodextrin (CD, Sigma), a low toxicity drug formulation vehicle that has been well characterized and used extensively as a hydrophobic drug delivery vehicle. We could achieve concentrations of up to ˜12 mg/ml of PTBA analogues in 20% CD in water (100 mg/kg in volumes of ˜150-250 μl), and daily IP injections with 200 μl 20% CD in water had no effect on renal functional recovery following IR-AKI. Therefore all studies were performed using compounds dissolved in 20% CD. To assess dosing and biological activity of PTBA analogues in mice, CD1 mice were injected with varying doses of compounds IP and kidneys isolated at different time point for histone extraction and analysis of histone H4 acetylation, a marker of HDAC inhibitor activity, as outlined below. Based on results of these studies, mice were treated daily with 1, 10, 50 or 100 mg/kg of compound or equivalent volume of 20% CD vehicle control starting 24 h after injury.
˜30 μl blood was obtained by tail vein bleed at different time points, and serum samples frozen after confirming that they had not undergone hemolysis (which interferes with enzymatic analysis for serum creatinine). Serum creatinine was evaluated in duplicate samples using a commercially available enzymatic cascade assay (Pointe Scientific, requires only ˜7 μl of serum). […] Blood Urea Nitrogen (BUN) was determined in duplicate samples using a colorimetric enzymatic assay kit (Infinity Urea, Thermo Scientific), and spot urinary albumin/creatinine ratios determined using a mouse albumin ELISA and urinary creatinine assay kit (Albuwell and Creatinine Companion, Exocell).
Compounds 22, 25, 29, 36, and 186 were injected for 7 days at […] starting 24 hrs after severe IR treatment. […] Fibrotic (scar) tissue was measured using Sirus Red after 28 days for various markers of fibrosis.

SMILES	increase in ntla expression (qPCR) [1] [%]	increase in pax8 expression (qPCR) [1] [%]	lhx1a relative transcript (qPCR) [1]	pax2a expression (qPCR) [1]	podocyte viability (% of DMSO control) [2] [%]	embryos with expansion of cdh17 [3] [%]	expansion of slc4a4 [3] [%]	expansion of slc12a1 [3] [%]	expansion of wt1a [3] [%]	persistence of H3K9Ac induction ([4]; 3.4 mg/kg single SC injection) [h]	dose inducing maximal Ac-H3 K9 expression in kidney ([4]; single SC injection, after 24 hours) [mg/kg]	fibrosis after 28 days (Sirus Red, markers of fibrosis) [5]	serum creatinine at day 9 [5]
O=C(O)CCCSc1ccccc1 [PTBA, 4-(phenylthio)butanoic acid]	80	50	three-fold increase	almost two-fold increase	≥ 50	89	92	64	74	–	–	–	–
COC(=O)CCCSc1ccccc1 [UPHD-00025, methyl 4-(phenylsulfanyl) butanoate]	–	–	–	–	–	–	–	–	–	24	3.4	most reduction in fibrosis	better activity
